Laboratory results published in patent publication US20220225616A1, “Antifungal Wallboards” (LANXESS Deutschland GmbH, priority 2019, published 2022).
“Also recorded” adds a separate entry of the source.

How the values were obtained:
Stachybotris chartarum = test: Gypsum board hand sheet efficacy testing (core protection), ASTM G 21-09; conditions: in gypsum core, 4 weeks at 28-30° C.
Description: (§1) For examination of the antifungal performance of the TBZ/BBIT combinations testing directly in gypsum boards provides realistic and practically relevant data for evaluation. […] For this purpose, a typical slurry recipe as given below for board production is used. Gypsum Board recipe:
(§2) The slurry is formed by mixing the dry components and the wet components together. The slurry is then mixed to achieve a homogeneous consistency. The fungicides are incorporated during preparation of the gypsum slurry by adding and mixing the fungicidal mixtures. For sandwiching the gypsum core, untreated cardboard (without fungicide) with a grammage of appr. 180 g/m^2 was used and after assembly of the plate the hand sheets are dried. The following antifungal compounds and respective formulations were used: • Thiabendazole • Butylbenzthiazole
(§3) For efficacy testing a test method of ASTM G 21 of 2009 was applied. As only change additional to the fungi mix as required by ASTM G 21-09, Fusarium solani and Aspergillus hiratsukae were included as further components of the mixed inoculum. According to this method, the manufactured gypsum boards as described above and after having been cut to an adequate size are placed on an agarplate and superficially are spoiled with fungal spores for a determined period of time of at the most 4 weeks. The respective total amount of actives in ppm based in gypsum/plaster (CaSO4(0.5 H2O) can be seen in the table.
(§4) Spore suspensions are produced for each fungi (spore concentrations of approximately 10^6/ml). Organisms which are included in ASTM G 21 comprise Aspergillus niger (ATCC 9642), Aureobasidium pullulans (ATCC 15233) Chaetomium globosum (ATCC 6205), Gliocladium virens (ATCC 6459) and Penicillium pinophilium (ATCC 11797) (as pure culture but also as mixed inoculum), however any other fungi species known to be able to grow in gypsum boards may be used in addition or instead. Mineral agar (according to ASTM G21 of 2009) was used as growth media in the agar plates. Before inoculation the gypsum board hand sheets are cut into pieces of appr. 5×5 cm.
(§5) For every concentration level, 3 test pieces are used in the test. Each sample is placed in a separate petri dish and then inoculated with the fungi. The samples are then incubated at 28-30° C. for 28 days. Pre-reading of the samples may be performed at approximately 10 days after inoculation. The activity of the treatments may be assessed visually, using a rating system of 0-4 for growth inhibition of fungal growth.
(§6) The reported results are recorded after 4 weeks testing at 28-30° C. according to the requirements of test method ASTM G 21 can be seen from Table 2: […]

[1] = tested on: Fungi Mix: standard ASTM G 21-09 species extended by Fusarium solani and Aspergillus hiratsukae; test: as above; conditions: for Fungal growth rating, Fungi Mix: in gypsum core, 4 weeks at 28-30° C.; for Overall efficacy in gypsum board test, in words: tested concentration range 25-300 ppm, interpretation of tables 2 and 3
Description: as §1, §2, §3, §4, §5, §6

[2] = 25 ppm total actives based on gypsum/plaster
[3] = 50 ppm total actives based on gypsum/plaster
[4] = 100 ppm total actives based on gypsum/plaster
[5] = 200 ppm total actives based on gypsum/plaster
[6] = 300 ppm total actives based on gypsum/plaster

Row | Structure (SMILES) | Fungal growth rating, Stachybotris (Stachybotris chartarum; [2]) | Fungal growth rating, Stachybotris (Stachybotris chartarum; [3]) | Fungal growth rating, Stachybotris (Stachybotris chartarum; [4]) | Fungal growth rating, Stachybotris (Stachybotris chartarum; [5]) | Fungal growth rating, Stachybotris (Stachybotris chartarum; [6]) | Fungal growth rating, Fungi Mix [1, 2] | Fungal growth rating, Fungi Mix [1, 3] | Fungal growth rating, Fungi Mix [1, 4] | Fungal growth rating, Fungi Mix [1, 5] | Fungal growth rating, Fungi Mix [1, 6] | Overall efficacy in gypsum board test, in words [1]
1 | c1ccc2[nH]c(-c3cscn3)nc2c1 [TBZ, thiabendazole] | 4 (Heavy growth (60% to complete coverage)) | 4 (Heavy growth (60% to complete coverage)) | 4 (Heavy growth (60% to complete coverage)) | 4 (Heavy growth (60% to complete coverage)) | 3 (Medium growth (30 to 60%)) | 4 (Heavy growth (60% to complete coverage)) | 4 (Heavy growth (60% to complete coverage)) | 4 (Heavy growth (60% to complete coverage)) | 4 (Heavy growth (60% to complete coverage)) | 3 (Medium growth (30 to 60%)) | not good enough for control of fungi growth; also recorded: neither TBZ nor AZO alone are good enough to pass the ASTM G 21 test
2 | CO/C=C(/C(=O)OC)c1ccccc1Oc1cc(Oc2ccccc2C#N)ncn1 [AZO, Azoxystrobin] | 4 (Heavy growth (60% to complete coverage)) | 4 (Heavy growth (60% to complete coverage)) | 4 (Heavy growth (60% to complete coverage)) | 4 (Heavy growth (60% to complete coverage)) | 4 (Heavy growth (60% to complete coverage)) | 4 (Heavy growth (60% to complete coverage)) | 4 (Heavy growth (60% to complete coverage)) | 4 (Heavy growth (60% to complete coverage)) | 4 (Heavy growth (60% to complete coverage)) | 4 (Heavy growth (60% to complete coverage)) | neither TBZ nor AZO alone are good enough to pass the ASTM G 21 test
3 | CCCCn1sc2ccccc2c1=O [BBIT, 2-butyl-1,2-benzisothiazolin-3-one] | 4 (Heavy growth (60% to complete coverage)) | 4 (Heavy growth (60% to complete coverage)) | 4 (Heavy growth (60% to complete coverage)) | 2 (Light growth (10 to 30%)) | 1 (Traces of growth (less than 10%)) | 4 (Heavy growth (60% to complete coverage)) | 4 (Heavy growth (60% to complete coverage)) | 4 (Heavy growth (60% to complete coverage)) | 2 (Light growth (10 to 30%)) | 1 (Traces of growth (less than 10%)) | better than TBZ, however still not fully satisfactory
